Data: ChEMBL document CHEMBL2062374, “Chemoenzymatic synthesis and evaluation of 3-azabicyclo[3.2.0]heptane derivatives as dopaminergic ligands” (Eur J Med Chem, 2012)

Experiments:
Type in all cases: cell-based
D(1A) dopamine receptor = D(1A) dopamine receptor (Homo sapiens, UniProt P21728); experiment: Displacement of [3H]SCH23390 from human D1 receptor expressed in HEK293 cells
D(2) dopamine receptor = D(2) dopamine receptor (Homo sapiens, UniProt P14416); experiment: Displacement of [3H]raclopride from human D2L receptor expressed in HEK293 cells
D(2) dopamine receptor, sequence (P14416 whole entry): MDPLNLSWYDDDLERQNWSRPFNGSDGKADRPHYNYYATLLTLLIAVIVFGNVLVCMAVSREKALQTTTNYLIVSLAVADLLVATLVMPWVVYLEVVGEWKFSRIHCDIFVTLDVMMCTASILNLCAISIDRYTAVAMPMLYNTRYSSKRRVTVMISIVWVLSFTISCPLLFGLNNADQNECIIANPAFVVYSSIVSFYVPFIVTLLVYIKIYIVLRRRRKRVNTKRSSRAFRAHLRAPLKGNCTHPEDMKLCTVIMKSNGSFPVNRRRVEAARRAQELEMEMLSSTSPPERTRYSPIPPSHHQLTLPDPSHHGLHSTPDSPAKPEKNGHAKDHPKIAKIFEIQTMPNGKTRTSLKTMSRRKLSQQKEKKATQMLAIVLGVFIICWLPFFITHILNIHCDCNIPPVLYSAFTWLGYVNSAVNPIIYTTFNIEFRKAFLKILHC

D(3) dopamine receptor = D(3) dopamine receptor (Homo sapiens, UniProt P35462); experiment: Displacement of [3H]raclopride from human D3 receptor expressed in HEK293 cells
D(3) dopamine receptor, sequence (P35462 whole entry): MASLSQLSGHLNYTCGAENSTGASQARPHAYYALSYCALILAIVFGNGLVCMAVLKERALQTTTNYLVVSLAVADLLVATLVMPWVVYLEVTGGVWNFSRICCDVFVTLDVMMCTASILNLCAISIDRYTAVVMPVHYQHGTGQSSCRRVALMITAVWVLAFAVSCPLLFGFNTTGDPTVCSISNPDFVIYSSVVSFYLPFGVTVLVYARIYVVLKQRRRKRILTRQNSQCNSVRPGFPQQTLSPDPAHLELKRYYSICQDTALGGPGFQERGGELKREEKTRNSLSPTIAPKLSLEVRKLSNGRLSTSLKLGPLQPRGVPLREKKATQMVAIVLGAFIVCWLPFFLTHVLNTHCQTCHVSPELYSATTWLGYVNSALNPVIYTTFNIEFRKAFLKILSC

D(1A) dopamine receptor, sequence (P21728 whole entry): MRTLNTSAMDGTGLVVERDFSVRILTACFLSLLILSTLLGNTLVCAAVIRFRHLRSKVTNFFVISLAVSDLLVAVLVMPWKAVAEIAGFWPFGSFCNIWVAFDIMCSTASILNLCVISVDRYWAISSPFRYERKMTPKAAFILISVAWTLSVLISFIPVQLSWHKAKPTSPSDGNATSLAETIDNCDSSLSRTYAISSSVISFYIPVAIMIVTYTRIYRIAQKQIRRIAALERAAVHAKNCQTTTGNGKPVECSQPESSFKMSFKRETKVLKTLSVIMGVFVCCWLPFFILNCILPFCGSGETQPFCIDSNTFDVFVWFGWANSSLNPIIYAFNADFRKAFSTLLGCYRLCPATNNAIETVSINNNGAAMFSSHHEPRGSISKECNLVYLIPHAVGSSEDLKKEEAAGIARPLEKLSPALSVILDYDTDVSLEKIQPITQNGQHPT

| Ki (D(1A) dopamine receptor) [µM] | Ki (D(2) dopamine receptor) [µM] | Ki (D(3) dopamine receptor) [µM] | Structure (SMILES) |
| --- | --- | --- | --- |
| > 100 | 3.9 | 1.77 | CCN(CC)[C@H]1[C@H](CO)[C@@H]2CN(Cc3ccccc3)[C@@H](C)[C@@H]21 |
| > 100 | 42 | 36 | CCN(CC)[C@@H]1[C@@H](CO)[C@H]2CN(Cc3ccccc3)[C@H](c3ccccn3)[C@H]21 |
| 49 | 2 | 1.5 | OC[C@@H]1[C@@H]2CN(Cc3ccccc3)[C@@H](c3ccccc3)[C@@H]2[C@H]1N1CCCCC1 |
| 40.8 | 7.4 | 11 | OC[C@H]1[C@H]2CN(Cc3ccccc3)[C@H](c3ccccc3)[C@H]2[C@@H]1N1CCCC1 |
| > 100 | 38 | 21 | CCN(CC)[C@@H]1[C@@H](CO)[C@H]2CN(Cc3ccccc3)[C@H](C)[C@H]21 |
| > 100 | 16 | 11 | C[C@H]1[C@H]2[C@@H](CN1Cc1ccccc1)[C@@H](CO)[C@@H]2N1CCCC1 |
| > 100 | 66 | 36 | C[C@@H]1[C@@H]2[C@H](CN1Cc1ccccc1)[C@H](CO)[C@H]2N1CCCC1 |

Further lines, the compound ahead of its results:

| Structure (SMILES) | Ki (D(1A) dopamine receptor) [µM] | Ki (D(2) dopamine receptor) [µM] | Ki (D(3) dopamine receptor) [µM] |
| --- | --- | --- | --- |
| CCN(CC)[C@@H]1[C@@H](CO)[C@H]2CN(Cc3ccccc3)[C@H](c3ccccc3)[C@H]21 | 42 | 12 | 13.2 |
| CCN(CC)[C@@H]1[C@@H](CO)[C@H]2CN(Cc3ccccc3)[C@H](c3ccc(Br)cc3)[C@H]21 | 7 | 5 | 7.93 |
| OC[C@H]1[C@H]2CN(Cc3ccccc3)[C@H](c3ccccc3)[C@H]2[C@@H]1N1CCCCC1 | 44 | 7 | 5.3 |
| CCN(CC)[C@H]1[C@H](CO)[C@@H]2CN(Cc3ccccc3)[C@@H](c3ccccn3)[C@@H]21 | > 100 | 12 | 8.8 |
| CCN(CC)[C@H]1[C@H](CO)[C@@H]2CN(Cc3ccccc3)[C@@H](c3ccccc3)[C@@H]21 | 22 | 1.7 | 1.3 |
| OC[C@@H]1[C@@H]2CN(Cc3ccccc3)[C@@H](c3ccccc3)[C@@H]2[C@H]1N1CCCC1 | 22 | 0.25 | 0.28 |
| CCN(CC)[C@H]1[C@H](CO)[C@@H]2CN(Cc3ccccc3)[C@@H](c3ccc(Br)cc3)[C@@H]21 | 8 | 2 | 2.14 |
